Source: PMC10685318, “Trans-cyclosulfamidate mannose-configured cyclitol allows isoform-dependent inhibition of GH47 α-D-mannosidases through a bump–hole strategy” (Chemical Science, 2023)

What was measured:
CkGH47 WT = CkGH47 WT (Caulobacter sp. K31, UniProt B0SWV2); assay: Inhibition of CkGH47 WT monitored by enzymatic conversion of α-1,2-mannobiose to mannose; assay type: biochemical, Caulobacter K31 strain; settings: for inhibition of the wild-type GH47 model enzyme: even at high inhibitor concentrations
Sequence of CkGH47 WT (B0SWV2 entry or part of it): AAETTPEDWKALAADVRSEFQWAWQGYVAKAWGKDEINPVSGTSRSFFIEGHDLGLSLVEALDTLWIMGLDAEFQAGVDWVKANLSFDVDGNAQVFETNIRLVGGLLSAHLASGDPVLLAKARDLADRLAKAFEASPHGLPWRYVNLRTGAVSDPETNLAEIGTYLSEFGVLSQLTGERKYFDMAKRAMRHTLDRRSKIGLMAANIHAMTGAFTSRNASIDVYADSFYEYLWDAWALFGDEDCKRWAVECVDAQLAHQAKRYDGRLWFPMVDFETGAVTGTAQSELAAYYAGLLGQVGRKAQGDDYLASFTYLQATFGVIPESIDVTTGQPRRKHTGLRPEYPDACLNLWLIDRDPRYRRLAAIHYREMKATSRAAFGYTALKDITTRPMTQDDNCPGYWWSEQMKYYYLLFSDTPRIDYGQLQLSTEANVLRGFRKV
Experimental: (§1) Trans-Cyclosulfamidate Cyclitols Males et al.
Figure S4. Inhibition of CkGH47 by 6 monitored by the enzymatic conversion of mannobiose to mannose. 3 concentrations of the […]
and the reaction was incubated for 1 hour at 22 °C. The enzyme was heat denatured (90 °C for 5 minutes). Using the mannose detection kit, NADPH production at 340 nm was measured and converted to mannose concentration using a standard curve of […]
Figure S5. Docking of 6, in pink, into the crystal structure of Caulobacter GH47 (PDB ID: 4AYO), in gold, showing the distance between the oxygen of 6 and L310. Left: 6 was docked into the CkGH47 enzyme active site by least squares fit superposition in coot against the CkGH47 and kifunensine complex (PDB ID 5NE5). Right: Position of CkGH47 WT crystal structures of the inhibitors 6 (pink) and kifunensine (green); native is shown in gold (PDB ID: 4AYO) and CkGH47 in complex with kifunensine is shown in orange (PDB ID: 5NE5); there are 2 alternate conformations of leucine each with 50% occupancy in the crystal structure. […]
2.1 Biochemical and biological methods
To obtain Michaelis-Menten kinetics
Lastly, to achieve an inhibition constant, the
The gradient of the graph, V0/Vi
After taking each time point, the sample was heat denatured at 95 °C for 5 minutes. The reactions were conducted in triplicate and averaged. […]
microplate spectrophotometer (BioTek). The mannose detection kit (Megazyme) was used to detect […]
dehydrogenase, was monitored at 340 nm. The absorbance after hexokinase was added to the mixture […]
2.1.2 Isothermal titration calorimetry
MicroCal ITC200 calorimeter at 25 °C over 20 injections. The experiment was duplicated to obtain a […]
the MicroCal PEAK-ITC analysis software.
2.2 Crystallographic data collection and refinement of CkGH47
3′ and the reverse primer was 5′-[…]-3′. Protein production and purification was followed as described previously.[3]
Reference data in the form of a
Refinement of the model was conducted […]
conformation was conducted using […]. Details of the data collection and refinement statistics […]

BtMan2A = target: T1, BtMan2A (Bacteroides thetaiotaomicron, UniProt Q8AAK6); assay: 4-MU activity assay for bacterial GH2 β-mannosidase, purified enzyme; assay type: biochemical
T1 construct: made in house; donated by Dr. W. Offen, University of York
T1 sequence (Q8AAK6 entry or part of it, change not shown): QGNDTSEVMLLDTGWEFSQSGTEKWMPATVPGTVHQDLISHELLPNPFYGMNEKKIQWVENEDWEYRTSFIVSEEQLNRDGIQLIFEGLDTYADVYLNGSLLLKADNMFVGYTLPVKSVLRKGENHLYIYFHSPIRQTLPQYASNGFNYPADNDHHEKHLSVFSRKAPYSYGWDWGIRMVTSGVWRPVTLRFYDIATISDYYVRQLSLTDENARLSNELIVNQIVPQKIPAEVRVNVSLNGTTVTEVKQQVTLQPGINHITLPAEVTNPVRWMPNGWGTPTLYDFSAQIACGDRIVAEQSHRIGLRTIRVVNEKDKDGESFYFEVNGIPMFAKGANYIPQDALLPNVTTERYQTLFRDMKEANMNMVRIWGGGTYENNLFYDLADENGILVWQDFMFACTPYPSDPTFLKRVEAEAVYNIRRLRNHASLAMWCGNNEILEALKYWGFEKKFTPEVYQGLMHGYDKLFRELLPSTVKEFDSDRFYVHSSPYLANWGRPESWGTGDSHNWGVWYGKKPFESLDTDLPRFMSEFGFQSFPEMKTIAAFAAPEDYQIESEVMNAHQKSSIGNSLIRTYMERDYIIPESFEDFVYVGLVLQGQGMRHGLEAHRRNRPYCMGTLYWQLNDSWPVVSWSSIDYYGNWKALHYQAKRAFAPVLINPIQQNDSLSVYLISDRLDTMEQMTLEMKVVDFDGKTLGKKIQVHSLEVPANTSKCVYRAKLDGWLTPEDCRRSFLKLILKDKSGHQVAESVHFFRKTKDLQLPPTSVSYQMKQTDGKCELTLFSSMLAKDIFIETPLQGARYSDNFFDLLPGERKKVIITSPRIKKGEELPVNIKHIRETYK
Experimental: as §1
2.3 GH38 α-mannosidases and GH2 β-mannosidase inhibition studies
All chemicals were of analytical grade and purchased from Sigma-Aldrich unless stated otherwise.
Optimal stability of cell homogenates and enzyme working stocks was ensured by preparation and temporary storage on ice. Cell homogenates were prepared and used on the same day. Protein concentrations were quantified using the Pierce BCA Protein Assay Kit (ThermoFisher). Protein samples were measured in clear flat-bottom polystyrene 96 well microplates (Greiner Bio-One) using a EMax Plus Microplate Reader (Molecular Devices). Activity measurements of human GH38 α-mannosidases and bacterial β-mannosidase BtMan2A were performed in black flat-bottom polystyrene 96 wells microplates (Greiner Bio-One) and total fluorescence was measured using a Perkin Elmer LS-55 fluorescence spectrometer at wavelengths λex = 366 and λem = 445 nm, with the signal optimized for medium gain readings. The fluorescence values of each enzyme sample were corrected for the background signal of a blank sample containing no enzyme. In the case of IC50 determinations, values were normalized against a control sample containing enzyme without added inhibitor. […]

[1] = Chemical stability of the final compounds on storage; assay type: physicochemical
Excerpt: 1,6-Cis-manno-cyclosulfate, 4, and 1,6-trans-manno-cyclosulfate, 5, were synthesized from mannose-configured cis-diol and trans-diol, respectively (ESI, Scheme S1 ^†).

**Q.** Which “α-1,2-mannobiose hydrolysed by the WT GH47 mannosidase to mannose” value (CkGH47 WT; after the addition of 1 mM 6) does the source give for `O=S1(=O)N[C@@H]2[C@@H](O)[C@@H](O)[C@H](O)[C@@H](CO)[C@H]2O1` [compound 6, 1,6-trans-manno-cyclosulfamidate] here?
**A.** 82%

**Q.** And the “inhibition of the wild-type GH47 model enzyme” value (CkGH47 WT)?
**A.** no significant inhibition

**Q.** And the “inhibition of the wild-type GH47 model enzyme” value (CkGH47 WT; listed as 1,6-trans-cyclic sulfamidate)?
**A.** does not inhibit

**Q.** What about the IC50 (BtMan2A) of the same compound?
**A.** > 1000 µM

**Q.** What about the chemical stability [1] of the same compound?
**A.** chemically stable
